Laboratory results: patent US6362369B1, “Phthalic acid diamide derivatives fluorine-containing aniline compounds as starting material, agricultural and horticultural insecticides, and a method for application of the insecticides” (Nihon Nohyaku Co., Ltd., priority 1997, dated 2002)

Columns and labels:
Format in all cases: in vivo
[1] = tested on: common cutworm (Spodoptera Litura); experiment: Insecticidal effect on common cutworm (Test Example 2); conditions: 500 ppm, 25° C.; for Insecticidal effect (Test Example 2), judged from mortality: 8 days after inoculation; for Insecticidal effect, Test Example 2: cabbage leaf immersed
Outline: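 Second-instar larvae placed in 9 cm Petri dishes with air-dried treated material, held at 25 °C. Dead and live insects counted 8 days after inoculation; mortality calculated and scored against a set criterion. Triplicate groups of 10 insects.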

[2] = tested on: diamondback moth (Plutella xylostella); experiment: Insecticidal effect on diamondback moth (Test Example 1); conditions: diamondback moth; for Insecticidal effect (Test Example 1), judged from mortality: judged by the criterion of Test Example 1; for Insecticidal effect, Test Example 1: judged by the mortality criterion of Test Example 1
Outline: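 Oviposition by adults on Chinese cabbage seedling; immersion; air-dry; 25° C room. Count of hatched larvae at day 6 post-immersion → mortality → effect graded by criterion. Triplicate, 10 insects/group.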

[3] = tested on: rice leafroller (Cnaphalocrocis medinalis); experiment: Insecticidal effect on rice leafroller (Test Example 3); conditions: 500 ppm, 25° C., humidity 70%; for Insecticidal effect (Test Example 3), judged from mortality: 4 days after inoculation; for Insecticidal effect, Test Example 3: rice lamina immersed
Outline: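 Insecticidal effect is judged by a predefined criterion from dead/alive counts four days after infesting air-dried lamina with third-instar larvae, kept on moistened filter paper at 25° C, 70% humidity.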

[4] = cabbage leaf dip, second-instar larvae of common cutworm
[5] = rice lamina dip, third-instar larvae of rice leafroller
[6] = second-instar larvae of common cutworm, eight days after inoculation
[7] = third-instar larvae of rice leafroller, four days after inoculation

Compound	Insecticidal effect (Test Example 2), judged from mortality [1, 4]	Insecticidal effect (Test Example 1), judged from mortality [2]	Insecticidal effect, Test Example 2 [1, 6]	Insecticidal effect, Test Example 1 [2]	Insecticidal effect, Test Example 3 [3, 7]	other results
Cc1cc(C(F)(F)C(F)(F)F)ccc1NC(=O)c1cccc(Cl)c1C(=O)NC(C)(C)C(Br)CBr (racemic) [compound 1603]	A (100)	A (100)	–	–	–	Insecticidal effect (Test Example 3), judged from mortality [3, 5]: A (100)
CC(C)NC(=O)c1c(I)cccc1C(=O)Nc1ccc2c(c1Cl)OC(F)(F)C(F)O2 (racemic) [compound 1679]	A (100)	A (100)	–	–	–	Insecticidal effect (Test Example 3), judged from mortality [3, 5]: A (100)
CC(C)NC(=O)c1c(I)cccc1C(=O)Nc1ccc2c(c1Cl)OC(F)C(F)(F)O2 (racemic) [compound 1680]	A (100)	A (100)	–	–	–	Insecticidal effect (Test Example 3), judged from mortality [3, 5]: A (100)
Cc1cc(OC(F)(F)C(F)F)ccc1NC(=O)c1cccc(Cl)c1C(=O)NC(C)C [Compound No. 141, 3-chloro-N^1-[4-(1,1,2,2-tetrafluoroethoxy)-2-methylphenyl]-N^2-isopropylphthalic acid diamide]	–	–	A (100)	A (100)	A (100)	–
Cc1cc(OC(F)(F)C(F)F)ccc1NC(=O)c1c(Cl)cccc1C(=O)NC(C)C [Compound No. 239, 6-chloro-N^1-[4-(1,1,2,2-tetrafluoroethoxy)-2-methylphenyl]-N^2-isopropylphthalic acid diamide]	–	–	A (100)	A (100)	A (100)	–
CC(C)NC(=O)c1c(Br)cccc1C(=O)Nc1ccc(OC(F)(F)F)cc1 [Compound No. 262, 3-bromo-N^1-(4-trifluoromethoxyphenyl)-N^2-isopropylphthalic acid diamide]	–	–	A (100)	A (100)	D (79-50)	–
Cc1cc(C(F)(F)C(F)(F)C(F)(F)C(F)(F)F)ccc1NC(=O)c1cccc(Br)c1C(=O)NC(C)C [Compound No. 281, 3-bromo-N^1-(4-nonafluorobutyl-2-methylphenyl)-N^2-isopropyl-phthalic acid diamide]	–	–	A (100)	A (100)	A (100)	–
Cc1ccc(Cl)cc1NC(=O)c1cccc([N+](=O)[O-])c1C(N)=O [compound 1]	–	–	D (79-50)	D (79-50)	A (100)	–
CCNC(=O)c1c(Cl)cccc1C(=O)Nc1ccc(OC(F)F)cc1C [compound 8]	–	–	A (100)	A (100)	A (100)	–
CCNC(=O)c1c(C(=O)Nc2cc(Cl)ccc2C)cccc1[N+](=O)[O-] [compound 10]	–	–	D (79-50)	A (100)	D (79-50)	–
CCNC(=O)c1c(C(=O)Nc2ccc(OC(F)F)cc2C)cccc1[N+](=O)[O-] [compound 11]	–	–	C (89-80)	A (100)	C (89-80)	–
CC(C)NC(=O)c1ccccc1C(=O)Nc1ccc(C(F)(F)C(F)(F)C(F)(F)F)cc1 [compound 27]	–	–	A (100)	A (100)	C (89-80)	–
CC(C)NC(=O)c1ccccc1C(=O)Nc1ccc(OC(F)(F)F)cc1 [compound 29]	–	–	B (99-90)	A (100)	A (100)	–
CC(C)NC(=O)c1ccccc1C(=O)Nc1ccc(OC(F)(F)C(F)OC(F)(F)C(F)(F)C(F)(F)F)cc1 (stereo not drawn) [compound 30]	–	–	A (100)	A (100)	A (100)	–
CC(C)NC(=O)c1ccccc1C(=O)Nc1ccc(Cl)cc1Cl [compound 42]	–	–	D (79-50)	A (100)	A (100)	–
CC(C)NC(=O)c1ccccc1C(=O)Nc1ccc(OC(F)(F)F)cc1Cl [compound 47]	–	–	D (79-50)	A (100)	A (100)	–
CC(C)NC(=O)c1ccccc1C(=O)Nc1ccc(OC(F)(F)F)cc1Br [compound 48]	–	–	B (99-90)	A (100)	A (100)	–
Cc1cc(OC(F)(F)C(F)(Cl)Cl)ccc1NC(=O)c1c(Cl)cccc1C(=O)NC(C)C [compound 228]	–	–	B (99-90)	–	A (100)	–
CC(C)NC(=O)c1cccc(Cl)c1C(=O)Nc1ccc(C(F)(C(F)(F)F)C(F)(F)F)cc1Cl [compound 231]	–	–	B (99-90)	–	A (100)	–

Compound	Insecticidal effect (Test Example 2), judged from mortality [1, 4]	Insecticidal effect (Test Example 1), judged from mortality [2]	Insecticidal effect, Test Example 2 [1, 6]	Insecticidal effect, Test Example 1 [2]	Insecticidal effect, Test Example 3 [3, 7]	other results
Cc1ccc(NC(=O)c2cccc(Br)c2C(=O)NC(C)C)c(C)c1 [compound 264]	–	–	D (79-50)	–	A (100)	–
Cc1cc(OC(F)(F)C(F)(Cl)Cl)ccc1NC(=O)c1c(I)cccc1C(=O)NC(C)C [compound 445]	–	–	–	–	–	Insecticidal effect on common cutworm (Test Example 2), judged grade ([1]; cabbage leaf dip, second-instar larvae, eight days after inoculation): B (99-90); Insecticidal effect on rice leafroller (Test Example 3), judged grade ([3]; rice lamina dip, third-instar larvae, four days after inoculation): A (100)
Cc1cc(OC(F)F)ccc1NC(=O)c1c(Cl)cccc1C(=O)NCc1ccccc1Cl [compound 1424]	–	–	–	–	–	Insecticidal effect, Test Example 2 ([1]; common cutworm second-instar larvae, eight days after inoculation): A (100); Insecticidal effect, Test Example 3 ([3]; rice leafroller third-instar larvae, four days after inoculation): A (100)
Cc1cc(C(F)(F)C(F)(F)F)c(C)cc1NC(=O)c1cccc(I)c1C(=O)NC(C)(C)C [compound 1656]	A (100)	–	–	–	–	Insecticidal effect (Test Example 3), judged from mortality [3, 5]: A (100)
CC(C)NC(=O)c1c(I)cccc1C(=O)Nc1ccc(C(F)(C(F)(F)F)C(F)(F)F)cc1F [compound 1669]	A (100)	A (100)	–	–	–	–
CC(C)(C)NC(=O)c1c(I)cccc1C(=O)Nc1ccc(C(F)(C(F)(F)F)C(F)(F)F)cc1F [compound 1670]	A (100)	A (100)	–	–	–	–
CSc1cc(C(F)(C(F)(F)F)C(F)(F)F)ccc1NC(=O)c1cccc(I)c1C(=O)NC(C)C [compound 1671]	A (100)	A (100)	–	–	–	–
CSc1cc(C(F)(C(F)(F)F)C(F)(F)F)ccc1NC(=O)c1cccc(I)c1C(=O)NC(C)(C)C [compound 1672]	A (100)	A (100)	–	–	–	–
CC(C)NC(=O)c1c(I)cccc1C(=O)Nc1ccc2oc(C(F)(F)F)nc2c1Cl [compound 1682]	A (100)	A (100)	–	–	–	–
CC(C)NC(=O)c1c(I)cccc1C(=O)Nc1cc2c(cc1Br)OC(F)(F)C(F)O2 (stereo not drawn) [compound 1684]	A (100)	A (100)	–	–	–	–
Cc1c(NC(=O)c2cccc(I)c2C(=O)NC(C)C)ccc(C(F)(C(F)(F)F)C(F)(F)F)c1C [compound 1689]	A (100)	A (100)	–	–	–	–
Cc1c(NC(=O)c2cccc(I)c2C(=O)NC(C)(C)C)ccc(C(F)(C(F)(F)F)C(F)(F)F)c1C [compound 1690]	A (100)	A (100)	–	–	–	–
CC(C)NC(=O)c1c(I)cccc1C(=O)Nc1ccc(C(F)(C(F)(F)F)C(F)(F)F)cc1C(C)C [compound 1691]	A (100)	A (100)	–	–	–	–
CCOc1cc(C(F)(C(F)(F)F)C(F)(F)F)ccc1NC(=O)c1cccc(I)c1C(=O)NC(C)C [compound 1693]	A (100)	A (100)	–	–	–	–
CC(C)NC(=O)c1c(I)cccc1C(=O)Nc1ccc(C(F)(C(F)(F)F)C(F)(F)F)c(F)c1 [compound 1695]	A (100)	A (100)	–	–	–	–
CC(C)(C)NC(=O)c1c(I)cccc1C(=O)Nc1ccc(C(F)(C(F)(F)F)C(F)(F)F)c(F)c1 [compound 1696]	A (100)	A (100)	–	–	–	–
CC(C)NC(=O)c1c(I)cccc1C(=O)Nc1ccc(C(F)(C(F)(F)F)C(F)(F)F)c(Cl)c1 [compound 1697]	A (100)	A (100)	–	–	–	–
CC(C)NC(=O)c1c(I)cccc1C(=O)Nc1ccc(C(F)(C(F)(F)F)C(F)(F)F)cc1Br [compound 1699]	A (100)	A (100)	–	–	–	–
CSc1cc(C(F)(F)C(F)(F)F)ccc1NC(=O)c1cccc(I)c1C(=O)NC(C)C [compound 1700]	D (79-50)	A (100)	–	–	–	–
